Assay results published in paper PMC2904697, “A Screen for Kinetochore-Microtubule Interaction Inhibitors Identifies Novel Antitubulin Compounds” (PLoS ONE, 2010).
pIC50: −log10 of the molar value. Where “and” joins values, the source holds several entries; their conditions need not be identical. Identical values can stand only once.

Experiments:
[1] = tested on: HeLa cells; assay: Mitotic delay and cell death in G1/S-synchronized HeLa cells (time-lapse videomicroscopy); assay type: cell-based, human; conditions: HeLa released from G1/S; 500 nmol/l
Description: At compound B concentrations of 5 µmol/l and above, the cells arrested robustly in metaphase (∼15 h) and then underwent cell death, as diagnosed by cell shrinkage (Fig. 3B). […] This phenotype is indicative of chromatids being unable to bind to spindle MTs and/or of spindle defects, as observed with nocodazole (Fig. 3C). […] Because drugs that inhibit tubulin polymerization also destabilize MTs, we next probed whether compound B destabilized metaphase spindles. We arrested HeLa cells in metaphase using 10 µmol/l of proteosome inhibitor MG132. […] Thus, compound B prevents tubulin assembly and destabilizes spindle MTs in cells.
Next, we determined whether the elevated antitubulin activities of compounds A6, A8, D7 and E7 (versus compound B), and the discrepancies in activity between the compounds themselves were reflected in their effects on mitosis. G1/S synchronized HeLa cells were released into growth medium containing 100 or 500 nmol/l of these compounds or compound B; the duration of the mitotic delay by the compounds and the percentage of cells undergoing subsequent cell death were scored. […] The four compounds triggered mitotic delays to an extent that directly reflects their activities in vitro (compare Fig. 6E and Fig. 6, panels B to D). […] Of note, each of our compounds acted in cells with an efficacy exceeding those measured in vitro (compare Fig. 6E and Fig. 5). This discrepancy may be due to increased compound:tubulin ratios in cells. Alternatively, the compounds may be modified intracellularly, resulting in enhanced activity. Because compound B and the four second-generation compounds are 6-furan-2-yl-3-methyl-4-oxo-4,5,6,7-tetrahydro-1H-indole-2-carboxylic acid derivatives, we have named these tubulin inhibitors “furan-metoticas”.

[2] = tested on: colchicine site in αβ-tubulin; assay: [3H]colchicine competition (DEAE-cellulose filter method); assay type: binding; conditions: [3H]colchicine 5 µmol/l, tubulin 1 µmol/l
Excerpt: Agents that inhibit tubulin polymerization and destabilize MTs include the colchicinoids, combretastatins, benzimidazole carbamates, vinca alkaloids, and maytansinoids. These drugs act primarily at β-tubulin in the αβ-heterodimer, albeit at different sites. Colchicinoids, combretastatins and benzimidazole carbamates (e.g. nocodazole) localize to the colchicine site near the C-terminus of β-tubulin at the αβ-tubulin intradimer interface, [16], whereas vinca alkaloids and maytansinoids localize to the N-terminal GTPase domain of β-tubulin [17], [18]. […] Its binding affinity, however, was ∼3-fold lower than that of nocodazole (compare values at 5 µmol/l and 20 µmol/l, Fig. 5C).
Tubulin binding of [^3H]colchicine was measured by the DEAE-cellulose filter method. Reaction mixtures contained 1.0 µmol/l αβ-tubulin, 1.0 mol/l monosodium glutamate, 0.1 mol/l glucose-1-phosphate, 1.0 mmol/l MgCl2, 1.0 mmol/l GTP, 0.5 mg/ml BSA, 5% DMSO, 5 µmol/l [^3H]colchicine, and inhibitor at 1, 5, 20 or 50 µmol/l. These reaction conditions strongly stabilize the colchicine-binding activity of tubulin [21].

[3] = tested on: αβ-tubulin; assay: Tubulin polymerization tracked turbidimetrically at 350 nm; assay type: biochemical; conditions: turbidimetric; versus compound B
Description: To quantify the antitubulin activity of compound B, we added 1–50 µmol/l compound B to 10 µmol/l αβ-tubulin. […] For this purpose, MTs were assembled from 10 µmol/l αβ-tubulin; 5 min into the reaction compound B was added in concentrations up to 200 µmol/l. MT depolymerization was tracked as a decrease in turbidity at 350 nm (Fig. 5B).
Polymerization of 10 µmol/l αβ-tubulin in BRB-80 buffer was monitored turbidimetrically at 350 nm for 15 min in a temperature-controlled spectrophotometer (37°C; SpectraMax Plus^384, Molecular Devices). To probe the effect of a compound on MT stability the molecule was added 5 min after initiation of tubulin assembly. The decrease in protein turbidity (350 nm) resulting from MT depolymerization was followed for 15 min at 37°C [13]. Quantitative comparisons of drug effects on tubulin assembly were also examined in 0.8 M glutamate with a 15 min drug-tubulin preincubation prior to the addition of GTP [14]. Tubulin assembly was monitored for 20 min at 30°C in Beckman DU7400/7500 spectrophotometers, and the compound concentration inhibiting tubulin assembly by 50% was determined.

[4] = biological target: recombinant human Ndc80 kinetochore complex binding to taxol-stabilized microtubules; assay: Ndc80^488 complex-MT binding assay (fluorescence microscopy / TIRF); conditions: for pIC50: total internal reflection fluorescence microscopy, Ndc80^488 complex 0.1 µmol/l, taxol-stabilized MTs; for Fold more active than compound B in the Ndc80^488 complex-MT binding assay: versus compound B
Excerpt: To screen compound libraries for molecules inhibiting binding of the outer kinetochore Ndc80 complex (Ndc80, Nuf2, Spc24, Spc25) to MTs, we used a fluorescence microscopy-based in vitro approach (Fig. 1). First, the recombinant human Ndc80 construct, used to crystallize the complex, was produced in Escherichia coli using a bicistronic plasmid from which the Nuf2-Spc24 and Ndc80-Spc25 peptides were generated (Fig. 1A). Following their intracellular assembly, the complex was purified from E. coli cell extract based on the GST tag at the N-terminus of Nuf2. The complex was released in solution with PreScission Protease (its recognition sequence was introduced between the GST tag and the NUF2 coding sequence) and was separated from contaminants by gel filtration chromatography (Fig. 1A). The high degree of purity of the preparation was confirmed by SDS-PAGE analysis and coomassie staining, which identified only both peptides (Fig. 1B). Next, the Ndc80 complex was fluorescently labeled with the Alexa Fluor 488 C5-maleimide (next named the Ndc80^488 complex) and was separated from unreacted fluorophore by gel filtration chromatography. The final preparation was highly pure as evidenced by gel filtration analysis and detection at 519 nm (emission maximum of the Alexa Fluor 488 dye) and at 280 nm (intrinsic protein fluorescence) (Fig. 1B). Next, the Ndc80^488 complex (0.1 µmol/l) was incubated with 10,200 compounds (comprising the Chembridge DIVERset and a compound collection from the Univ. Rome) at a starting concentration of 50 µmol/l. Binding (or lack thereof) of the complex to rhodamine-labeled taxol-stabilized MTs (0.1 µmol/l) was scored by wide-field fluorescence microscopy (Fig. 1C; images in Fig. 2A). […] Total internal reflection fluorescence microscopy was used to establish the IC50 value of the compound, which was measured to be ∼20 µmol/l (Fig. 2C).
Recombinant human Ndc80 complex (Ndc80^Bonsai complex) was produced in Escherichia coli using a bicistronic expression plasmid (Fig. 1A, [12]). Following transcription from the TAC promoter/operator by induction with 0.4 mmol/l IPTG (20°C, 15 h), GST-Nuf2-Spc24 and Ndc80-Spc25 polypeptides were generated, which dimerized intracellulary into the GST-Ndc80 complex. The complex was isolated from E. coli cell extract following incubation with glutathione beads. The complex was released from the beads with PreScission Protease (GE Healthcare Life Sciences) and contaminants were removed by gel filtration chromatography (Superdex 200, GE Healthcare Life Sciences). On average 4 mg of Ndc80 complex were obtained from 1 liter of cell culture. Next, 1 mg Ndc80 complex was labeled with 0.1 mg Alexa Fluor 488 C5-maleimide fluorophore (Invitrogen) at a 1.5-2 stoichiometry. The fluorescent complex (Ndc80^488 complex) was separated from unreacted fluorophore by gel filtration chromatography (Fig. 1B) and was then used to screen for compounds inhibiting Ndc80^488 complex-MT binding (Fig. 1C). The Ndc80^488 complex is fully functional as it is recruited to and acts at kinetochores when injected into prometaphase HeLa cells.
MTs were polymerized (30 min, 37°C) from a 1∶10 mixture of rhodamine-labeled:unlabeled bovine brain αβ-tubulin (Cytoskeleton) in BRB-80 buffer (80 mmol/l PIPES pH 6.8, 1 mmol/l MgCl2, 1 mmol/l EGTA) and were then stabilized with 20 µmol/l taxol. The Ndc80^488 complex (0.1 µmol/l) was incubated with 100 µmol/l compound (30 min, 24°C) in 96-well polypropylene plates (Eppendorf). The 10,000 compound DIVERset library (Chembridge) and 200 compounds from the Department of Medicinal Chemistry and Technologies, University of Rome La Sapienza were used in the screen. Next, the MTs (100 nmol/l) were added to the compound-Ndc80^488 complex solution in a 1∶1 v/v ratio. After incubation (10 min, 24°C), the reaction mixtures were transferred to 96-well glass-bottom plates (Greiner Bio-one). […]

[5] = tested on: taxol-stabilized MTs; assay: Compound-based depolymerization of taxol-stabilized MTs in vitro; assay type: biochemical, bovine; conditions: compound 50 µmol/l; taxol (20 µmol/l)-stabilized MTs
Description: To test this hypothesis, we treated HeLa cells with 0.5 µmol/l taxol, thereby arresting them in metaphase with stabilized spindles. […] To quantify the taxol-mediated inhibition of MT disassembly by compound B, we measured in vitro the depolymerization of taxol (20 µmol/l)-stabilized MTs following incubation with 50 µmol/l compound B (the screen condition). Nocodazole and maytansine (both at 50 µmol/l) were included as controls. At 50 µmol/l, compound B depolymerized 3% of the taxol-stabilized MT population, while nocodazole and maytansine depolymerized 11% and 31% of the taxol-treated MTs, respectively (Fig. 4B). […] This finding further supports our hypothesis that the interaction of compound B with the stabilized MTs must have prevented the Ndc80^488 complex from establishing contact with the MT surface.
MTs were polymerized (30 min, 37°C) from a 1∶10 mixture of rhodamine-labeled:unlabeled bovine brain αβ-tubulin (Cytoskeleton) in BRB-80 buffer (80 mmol/l PIPES pH 6.8, 1 mmol/l MgCl2, 1 mmol/l EGTA) and were then stabilized with 20 µmol/l taxol. The Ndc80^488 complex (0.1 µmol/l) was incubated with 100 µmol/l compound (30 min, 24°C) in 96-well polypropylene plates (Eppendorf). The 10,000 compound DIVERset library (Chembridge) and 200 compounds from the Department of Medicinal Chemistry and Technologies, University of Rome La Sapienza were used in the screen. Next, the MTs (100 nmol/l) were added to the compound-Ndc80^488 complex solution in a 1∶1 v/v ratio. After incubation (10 min, 24°C), the reaction mixtures were transferred to 96-well glass-bottom plates (Greiner Bio-one). Each well was imaged at 519 nm and 590 nm with an IX81 Olympus inverted wide-field microscope (Olympus). Total internal reflection fluorescence imaging was performed with an Olympus IX71 inverted wide-field microscope (Olympus). ImageJ was used for image processing (NIH, USA).
Taxol-stabilized MTs were prepared and diluted as described for the Ndc80^488 binding experiments. Varying compound concentrations in 10 µl of DMSO were added to 490 µl of diluted MTs at 37°C. Following incubation (30 min, 37°C), 450 µl of each mixture was centrifuged (10 min; 30,000 rpm; 37°C) in a Beckman Optima TLX centrifuge (TLA120.1 rotor). Pellets were dissolved in 25 µl of 8 mol/l urea, and the protein content of 20 µl was compared with that from pellets formed without compound.

| Compound | Effect on mitosis at 500 nmol/l [1] | Fold more active than compound B as inhibitors of [3H]colchicine-tubulin binding [2] [fold] | Fold lower IC50 for inhibiting tubulin assembly than that of compound B [3] [fold] | pIC50 [4] | Fold more active than compound B in the Ndc80^488 complex-MT binding assay [4] [fold] | Taxol-stabilized MT population depolymerized [5] [%] |
| --- | --- | --- | --- | --- | --- | --- |
| C=CCOC(=O)c1[nH]c2c(c1C)C(=O)C[C@@H](c1ccco1)C2 [E7] | robust mitotic block, followed by cell death | 3 | 4.0 | ~6.00 and 6.00 | ~20 | – |
| Cc1c(C(=O)OC2CCCCC2)[nH]c2c1C(=O)C[C@@H](c1ccco1)C2 [A6] | – | 3 | 2.3 | ~6.00 and 6.00 | ~20 | – |
| C/C=C/COC(=O)c1[nH]c2c(c1C)C(=O)C[C@@H](c1ccco1)C2 [D7] | robust mitotic block, followed by cell death | 3 | 3.0 | ~6.00 and 6.00 | ~20 | – |
| COc1cc2cc(c1Cl)N(C)C(=O)C[C@H](OC(=O)[C@H](C)N(C)C(C)=O)[C@]1(C)O[C@H]1[C@H](C)[C@@H]1C[C@@](O)(NC(=O)O1)[C@H](OC)/C=C/C=C(\C)C2 [maytansine, reference compound] | – | – | – | – | – | 31 |
